Assay results from US20240285571A1, “METHODS OF TREATING BONE INFECTIONS” (MICROBION CORPORATION, priority 2020, published 2024).
In brackets after ≈: the same amount, converted by molar mass. Where two headings read alike, the source gives them in different places.

How the values were obtained:
Format in all cases: cell-based
[1] = tested on: relevant ATCC QC organisms; assay: Broth microdilution MIC, QC (Example 6); conditions: read-out: MIC
Method in brief: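 QC strains were tested per CLSI broth microdilution in cation-adjusted Mueller Hinton broth, with Ca2+ supplemented for daptomycin, at about 5×10^5 CFU/mL. Incubation was at 35° C for 16–20 hr, or 24 hr for vancomycin against S. aureus. The MIC was the lowest concentration inhibiting visible growth.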

[2] = tested on: Acinetobacter baumannii; assay: Broth microdilution MIC (Example 6); conditions: Acinetobacter baumannii, read-out: MIC
Method in brief: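 CLSI broth microdilution in cation-adjusted Mueller Hinton broth, test agents 0.06-64 μg/mL from DMSO stocks, inoculum approx. 5×10^5 CFU/mL. Incubation 35° C for 16–20 hr; MIC taken as lowest concentration inhibiting visible growth.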

[3] = tested on: Pseudomonas aeruginosa; assay: Broth microdilution MIC (Example 6); conditions: Pseudomonas aeruginosa, read-out: MIC
Protocol: (§1) Test Compounds: The test agents BisEDT (MB-1-B3; Lot No. ED268-1-11-01), MB-2B, and MB-6 were stored at room temperature, in the dark, until assayed.
(§2) For testing daptomycin, calcium was supplemented with […] Ca^2+, resulting in a final concentration of […] Ca^2+ (2, 3).
(§3) MIC Assay Procedure: MIC values were determined using a broth microdilution procedure described by CLSI (2, 3).
(§4) The Biomek 2000 was then used to make 2-fold serial dilutions in the mother plates from column 1 through column 11. The wells of column 12 contained no drug and served as the organism growth control wells for the assay.
(§5) The test panels were prepared on the Biomek FX instrument which transferred 2 μL of drug solution from each well of a mother plate to the corresponding well of each daughter plate in a single step.
(§6) A standardized inoculum of each test organism was prepared per CLSI methods to equal a 0.5 McFarland standard, followed by a dilution of 1:20. The plates were then inoculated with 10 μL of the diluted inoculum using the Biomek 2000 from low to high drug concentration resulting in a final concentration of approximately 5×10^5 CFU/mL.
(§7) Plates were stacked 3-4 high, covered with a lid on the top plate, placed into plastic bags, and incubated at 35° C. for 16 to 20 hr (vancomycin was read for S. aureus after 24 hr incubation time). The MIC was recorded as the lowest concentration of drug that inhibited visible growth of the organism.

[4] = tested on: Escherichia coli; assay: Broth microdilution MIC (Example 6); conditions: Escherichia coli, read-out: MIC
Protocol: as §1, §2, §3, §4, §5, §6, §7

[5] = tested on: Klebsiella pneumoniae; assay: Broth microdilution MIC (Example 6); conditions: Klebsiella pneumoniae, read-out: MIC
Protocol: as §1, §2, §3, §4, §5, §6, §7

[6] = Escherichia coli, ATCC25922, E. coli ATCC 25922
[7] = Escherichia coli, ATCC35218, E. coli ATCC 35218
[8] = Klebsiella pneumoniae, ATCCBAA1705, K. pneumoniae ATCC BAA-1705
[9] = Pseudomonas aeruginosa, ATCC27853, P. aeruginosa ATCC 27853
[10] = A. baumannii isolate CDC 273, β-lactamase type ESBL/OXA
[11] = A. baumannii isolate CDC 274, β-lactamase type ESBL/OXA
[12] = A. baumannii isolate CDC 275, β-lactamase type ESBL/OXA
[13] = A. baumannii isolate CDC 277, β-lactamase type ESBL/OXA
[14] = A. baumannii isolate CDC 284, β-lactamase type ESBL/OXA
[15] = A. baumannii isolate CDC 307, β-lactamase type OXA
[16] = A. baumannii isolate CDC 308, β-lactamase type ESBL/OXA
[17] = A. baumannii isolate CDC 311, β-lactamase type OXA
[18] = A. baumannii isolate CDC 312, β-lactamase type OXA
[19] = A. baumannii isolate CDC 313, β-lactamase type ESBL/OXA
[20] = NCTC13304, A. baumannii isolate NCTC 13304, β-lactamase type OXA
[21] = P. aeruginosa isolate CDC 230, β-lactamase type VIM/OXA
[22] = P. aeruginosa isolate CDC 231, β-lactamase type KPC/OXA
[23] = P. aeruginosa isolate CDC 241, β-lactamase type IMP/OXA
[24] = P. aeruginosa isolate CDC 246, β-lactamase type NDM/OXA
[25] = P. aeruginosa isolate CDC 250, β-lactamase type NDM/OXA
[26] = P. aeruginosa isolate CDC 356, β-lactamase type KPC
[27] = P. aeruginosa isolate CDC 439, β-lactamase type IMP
[28] = P. aeruginosa isolate CDC 444, β-lactamase type VIM
[29] = P. aeruginosa isolate CDC 457, β-lactamase type VIM
[30] = P. aeruginosa isolate CDC 516, β-lactamase type KPC/AmpC
[31] = P. aeruginosa isolate CDC 518, β-lactamase type KPC/AmpC
[32] = ATCC35218, E. coli ATCC 35218, ESBL
[33] = ATCCBAA2471, E. coli ATCC BAA-2471, NDM
[34] = ATCCBAA1705, K. pneumoniae ATCC BAA-1705, ESBL/KPC
[35] = K. pneumoniae CDC 113, ESBL/KPC
[36] = K. pneumoniae CDC 115, ESBL/KPC
[37] = K. pneumoniae CDC 120, ESBL/KPC
[38] = K. pneumoniae CDC 126, ESBL/KPC
[39] = K. pneumoniae CDC 129, ESBL/KPC
[40] = K. pneumoniae CDC 135, ESBL/VIM
[41] = K. pneumoniae CDC 138, ESBL/NDM
[42] = K. pneumoniae CDC 158, ESBL/NDM/OXA

Structure (SMILES): C[C@H]1COc2c(N3CCN(C)CC3)c(F)cc3c(=O)c(C(=O)O)cn1c23 [Levofloxacin]
- MIC [1, 6]: ≤ 0.008 µg/mL
- MIC [1, 7]: ≤ 0.008 µg/mL
- MIC [1, 8]: > 8 µg/mL
- MIC [1, 9]: 0.5 µg/mL
- MIC ([1]; Staphylococcus aureus, ATCC29213, S. aureus ATCC 29213): 0.06 µg/mL
- MIC [2, 10]: > 8 µg/mL
- MIC [2, 11]: 8 µg/mL
- MIC [2, 12]: 4 µg/mL
- MIC [2, 13]: 8 µg/mL
- MIC [2, 14]: 8 µg/mL
- MIC [2, 15]: 8 µg/mL
- MIC [2, 16]: 4 µg/mL
- MIC [2, 17]: 2 µg/mL
- MIC [2, 18]: 2 µg/mL
- MIC [2, 19]: 2 µg/mL
- MIC [2, 20]: 1 µg/mL
- MIC [3, 21]: 8 µg/mL (≈ 22.1 µM)
- MIC [3, 22]: > 8 µg/mL
- MIC [3, 23]: 8 µg/mL (≈ 22.1 µM)
- MIC [3, 24]: > 8 µg/mL
- MIC [3, 25]: > 8 µg/mL
- MIC [3, 26]: 0.12 µg/mL (≈ 0.332 µM)
- MIC [3, 27]: 8 µg/mL (≈ 22.1 µM)
- MIC [3, 28]: 8 µg/mL (≈ 22.1 µM)
- MIC [3, 29]: > 8 µg/mL
- MIC [3, 30]: 0.25 µg/mL (≈ 0.692 µM)
- MIC [3, 31]: > 8 µg/mL
- MIC [4, 32]: ≤ 0.008 µg/mL
- MIC [4, 33]: > 8 µg/mL
- MIC ([4]; E. coli CDC 114, ESBL/KPC): 4 µg/mL (≈ 11.1 µM)
- MIC ([4]; E. coli CDC 118, ESBL/NDM): 8 µg/mL (≈ 22.1 µM)
- MIC ([4]; E. coli CDC 435, NDM): > 8 µg/mL
- MIC ([4]; E. coli CDC 451, KPC): > 8 µg/mL
- MIC ([4]; E. coli CDC 503, ESBL/NDM): > 8 µg/mL
- MIC ([4]; E. coli MMX 5745, KPC): 8 µg/mL (≈ 22.1 µM)
- MIC ([4]; E. coli MMX 5755, ESBL): 8 µg/mL (≈ 22.1 µM)
- MIC ([4]; E. coli MMX 5756, ESBL): 4 µg/mL (≈ 11.1 µM)
- MIC ([4]; E. coli MMX 5758, ESBL): 8 µg/mL (≈ 22.1 µM)
- MIC [5, 34]: > 8 µg/mL
- MIC ([5]; K. pneumoniae CDC 112, KPC): 4 µg/mL (≈ 11.1 µM)
- MIC [5, 35]: 4 µg/mL (≈ 11.1 µM)
- MIC [5, 36]: > 8 µg/mL
- MIC [5, 37]: > 8 µg/mL
- MIC [5, 38]: 0.015 µg/mL (≈ 0.0415 µM)
- MIC [5, 39]: > 8 µg/mL
- MIC [5, 40]: > 8 µg/mL
- MIC [5, 41]: > 8 µg/mL
- MIC [5, 42]: 4 µg/mL (≈ 11.1 µM)
- MIC ([5]; K. pneumoniae MMX 9029, ESBL): 0.12 µg/mL (≈ 0.332 µM)

Structure (SMILES): C[C@@H](O)[C@H]1C(=O)N2C(C(=O)O)=C(S[C@@H]3CN[C@H](C(=O)N(C)C)C3)[C@H](C)[C@H]12 [Meropenem]
- MIC [1, 6]: ≤ 0.008 µg/mL
- MIC [1, 7]: ≤ 0.008 µg/mL
- MIC [1, 8]: 8 µg/mL
- MIC [1, 9]: 0.25 µg/mL
- MIC [2, 10]: > 8 µg/mL
- MIC [2, 11]: > 8 µg/mL
- MIC [2, 12]: > 8 µg/mL
- MIC [2, 13]: > 8 µg/mL
- MIC [2, 14]: > 8 µg/mL
- MIC [2, 15]: 8 µg/mL
- MIC [2, 16]: 8 µg/mL
- MIC [2, 17]: > 8 µg/mL
- MIC [2, 18]: 4 µg/mL
- MIC [2, 19]: > 8 µg/mL
- MIC [2, 20]: > 8 µg/mL
- MIC [3, 21]: > 8 µg/mL
- MIC [3, 22]: > 8 µg/mL
- MIC [3, 23]: > 8 µg/mL
- MIC [3, 24]: > 8 µg/mL
- MIC [3, 25]: > 8 µg/mL
- MIC [3, 26]: > 8 µg/mL
- MIC [3, 27]: > 8 µg/mL
- MIC [3, 28]: > 8 µg/mL
- MIC [3, 29]: > 8 µg/mL
- MIC [3, 30]: > 8 µg/mL
- MIC [3, 31]: > 8 µg/mL
- MIC [4, 32]: ≤ 0.008 µg/mL
- MIC [4, 33]: > 8 µg/mL
- MIC ([4]; E. coli CDC 114, ESBL/KPC): 2 µg/mL (≈ 5.22 µM)
- MIC ([4]; E. coli CDC 118, ESBL/NDM): 0.06 µg/mL (≈ 0.156 µM)
- MIC ([4]; E. coli CDC 435, NDM): > 8 µg/mL
- MIC ([4]; E. coli CDC 451, KPC): 1 µg/mL (≈ 2.61 µM)
- MIC ([4]; E. coli CDC 503, ESBL/NDM): 8 µg/mL (≈ 20.9 µM)
- MIC ([4]; E. coli MMX 5745, KPC): 2 µg/mL (≈ 5.22 µM)
- MIC ([4]; E. coli MMX 5755, ESBL): 0.015 µg/mL (≈ 0.0391 µM)
- MIC ([4]; E. coli MMX 5756, ESBL): ≤ 0.008 µg/mL
- MIC ([4]; E. coli MMX 5758, ESBL): ≤ 0.008 µg/mL
- MIC [5, 34]: 8 µg/mL (≈ 20.9 µM)
- MIC ([5]; K. pneumoniae CDC 112, KPC): > 8 µg/mL
- MIC [5, 35]: > 8 µg/mL
- MIC [5, 36]: > 8 µg/mL
- MIC [5, 37]: > 8 µg/mL
- MIC [5, 38]: 4 µg/mL (≈ 10.4 µM)
- MIC [5, 39]: 8 µg/mL (≈ 20.9 µM)
- MIC [5, 40]: 1 µg/mL (≈ 2.61 µM)
- MIC [5, 41]: > 8 µg/mL
- MIC [5, 42]: > 8 µg/mL
- MIC ([5]; K. pneumoniae MMX 9029, ESBL): 0.015 µg/mL (≈ 0.0391 µM)
